Series [1] can be described thus: Solubility of RTKi in phosphate buffer vehicle containing hydroxypropyl cyclodextrin (HPCD). The class given is physicochemical. To be noted: for solubility enhancement: 10% HPCD in phosphate buffer vs phosphate buffer alone; for solubility: RTKi Solubility. The source says:
(§1) The present inventors have discovered that use of cyclodextrin derivatives to solubilize highly insoluble anti-angiogenic active compounds provides an efficacious ophthalmic formulation. […] Prototype intravitreal vehicle is shown in Example 1, and intravitreal and PJ formulations of the active compound containing HPCD are provided in Examples 2 and 3, respectively.
Solubility of RTKi in phosphate buffer vehicle containing various amount of hydroxypropyl cyclodextrin (HPCD).

A short description of series [2]: Solubility of RTKi in phosphate buffer vehicle containing sulfobutylether beta cyclodextrin (SBCD). The class given is physicochemical. Conditions: for solubility: RTKi Solubility.
Source text: as §1

Another series has as its system FGFR. Description: Kinase inhibition, cell-free enzymatic assay. The class given is biochemical. To be noted: 1 mM ATP. As to the method: All data reported as IC50 values for kinase inhibition in cell-free enzymatic assays; ND denotes no data. Values determined @ 1 mM ATP.

The values that follow come from US20070149480A1 (Alcon, Inc., priority 2005, published 2007).

Structures are written as SMILES. Values after ≈ are worked out from the molar mass of the structure shown. A value given as a limit tells only on which side of the number the result lay.

A word on the solubility: it is the dissolved amount per volume that the medium holds. Read a high solubility as a readily soluble substance. Usually IC50 stands for the concentration that inhibits the measured activity by half.

As for `Cc1ccc(F)c(NC(=O)Nc2ccc(-c3cccc4[nH]nc(N)c34)cc2)c1` [RTKi, N-[4-(3-amino-1H-indazol-4-yl)phenyl]-N′-(2-fluoro-5-methylphenyl) urea], the “RTKi Solubility” value in series [1] (10% HPCD Phosphate Buffer) is 1098.8 µg/mL; in series [2] (10% SBCD Phosphate Buffer) it was 2526.5 µg/mL. In addition, in series [1] (10% HPCD in phosphate buffer), the “solubility expressed as percent” value is on record as “about 0.1%”. Also, the solubility enhancement result in series [1] is recorded as “More than 1800 fold”; in series [1] (listed as active compound), “approximately 1800 fold”. Besides, the solubility in series [1] (phosphate buffer (0% HPCD), pH 7.2, aqueous buffer, pH 7.2) is 0.59 µg/mL (≈ 1.57 µM); in series [1] (phosphate buffer with 1% HPCD, pH 7.2, aqueous with cosolvent or surfactant or cyclodextrin, 1% HPCD in Phosphate Buffer), 82.3 µg/mL (≈ 219 µM); in series [1] (phosphate buffer with 5% HPCD, pH 7.2, aqueous with cosolvent or surfactant or cyclodextrin, 5% HPCD Phosphate Buffer) it was 527 µg/mL (≈ 1400 µM); in series [1] (phosphate buffer with 10% HPCD, pH 7.2, aqueous with cosolvent or surfactant or cyclodextrin, 10% HPCD Phosphate Buffer), 1090 µg/mL (≈ 2900 µM); in series [2] (phosphate buffer (0% SBCD), pH 7.2, aqueous buffer) it was 0.59 µg/mL (≈ 1.57 µM); in series [2] (phosphate buffer with 1% SBCD, pH 7.2, aqueous with cosolvent or surfactant or cyclodextrin, 1% SBCD in Phosphate Buffer) it was 188 µg/mL (≈ 501 µM). The solubility in series [2] (phosphate buffer with 2.5% SBCD, pH 7.2, aqueous with cosolvent or surfactant or cyclodextrin, 2.5% SBCD Phosphate Buffer) came to 641 µg/mL (≈ 1710 µM); in series [2] (phosphate buffer with 5% SBCD, pH 7.2, aqueous with cosolvent or surfactant or cyclodextrin, 5% SBCD Phosphate Buffer), 1090 µg/mL (≈ 2910 µM); in series [2] (phosphate buffer with 10% SBCD, pH 7.2, aqueous with cosolvent or surfactant or cyclodextrin, 10% SBCD Phosphate Buffer), 2520 µg/mL (≈ 6710 µM); in series [2] (phosphate buffer with 20% SBCD, pH 7.2, aqueous with cosolvent or surfactant or cyclodextrin, 20% SBCD Phosphate Buffer), 4120 µg/mL (≈ 11000 µM). The IC50 in the series on FGFR was more than 12.5 µM.
